From patent US8058243B2, “Method for treating a brain cancer with ifenprodil” (HSC Research and Development Limited Partnership, priority 2006, dated 2011)
Where two headings read alike, the source gives them in different places.

Test system: murine neural precursor cells (neurosphere cultures)
Assay: HTS of LOPAC library against secondary neurosphere cultures, MTT proliferation assay at 3 μM, day 7 (z score, P value)
Type: cell-based, mouse
[1] = LOPAC screen, neurosphere MTT proliferation, 3 μM, day 7
[2] = yes/no: significantly inhibited neurosphere proliferation (P<0.01) in primary screen
[3] = primary LOPAC screen, 3 μM, MTT, neurosphere proliferation
[4] = yes/no: significantly inhibited neurosphere proliferation in the primary screen
[5] = LOPAC primary screen, neurosphere MTT proliferation, 3 μM, day 7
[6] = yes/no: significantly inhibited neurosphere proliferation in primary screen
[7] = yes/no: significantly inhibited neurosphere proliferation (P<0.01) in the primary screen
[8] = yes = significantly inhibited neurosphere proliferation (P<0.01) in the primary screen
[9] = LOPAC library screen, 3 μM, MTT, secondary neurosphere cultures, day 7
[10] = LOPAC library screen, 3 μM, MTT, neurosphere cultures
[11] = LOPAC library screen at 3 μM, secondary neurosphere cultures, MTT

Compound: Cl.Cl.Clc1cccc(N2CCNCC2)c1
- Z Score: 0.9516

Compound: Cl.NCC(O)C1CCCCCCC1 (centres unmarked) [listing 1 of 2 here]
- Z score [1]: −0.575
- Activity [2]: no

Compound: Cl.NCC(O)C1CCCCCCC1 (centres unmarked) [listing 2 of 2 here]
- Z Score: −0.5747

Compound: C[N+]1(C)C2CCC1CC(OC(=O)c1c[nH]c3ccccc13)C2.[I-] (centres unmarked)
- Z Score: −0.3436
- Z score [3]: −0.344
- Activity [4]: no

Compound: Cl.Fc1ccc(C(OCCCc2c[nH]cn2)c2ccc(F)cc2)cc1
- Z Score: −0.01466

Compound: C[C@]12CC[C@@H](O)C[C@@H]1CC[C@@H]1[C@@H]2CC[C@]2(C)[C@@H](C(=O)CO)CC[C@@H]12
- Z Score: 0.4441
- Z score [5]: 0.444
- Activity [6]: no

Compound: CN1C2CCC1CC(OC(c1ccccc1)c1ccc(Cl)cc1)C2.Cl (centres unmarked)
- Z Score: −9.672
- Z score [5]: −9.672
- Activity [7]: yes

Compound: COc1ccc2[nH]c3c(c2c1)CCNC3 [listing 1 of 2 here]
- Z Score: −2.661

Compound: COc1ccc2[nH]c3c(c2c1)CCNC3 [listing 2 of 2 here]
- Z score [5]: −2.661
- Activity [8]: yes

Compound: Nc1ncnc2c1c(-c1ccc(Oc3ccccc3)cc1)cn2C1CCCC1
- Z Score: −1.412
- Z score [1]: −1.412
- Activity [2]: no

Compound: CC1CCCC=CC2CC(O)CC2C(O)C=CC(=O)O1 (centres unmarked)
- Z Score: −11.27
- Z score [5]: −11.274
- Activity [8]: yes

Compound: Cl.Nc1ccn([C@@H]2O[C@H](CO)[C@@H](O)[C@@H]2O)c(=O)n1
- Z Score [9]: −11.27
- Z score [5]: −11.274
- Activity [7]: yes

Compound: COc1ccc2c(c1)[C@]13CCCC[C@@H]1[C@H](C2)N(C)CC3
- Z Score: −0.7932
- Z score [5]: −0.793
- Activity [7]: no

Compound: O=C(O)CN(CCOCCOCCN(CC(=O)O)CC(=O)O)CC(=O)O
- Activity: no
- Z Score: 1.507
- Z score: 1.507

Compound: NC(N)=Nc1ccc2[nH]c3c(c2c1)C[C@@]1(O)[C@H]2Cc4ccc(O)c5c4[C@@]1(CCN2CC1CC1)[C@H]3O5.O=C(O)C(F)(F)F.O=C(O)C(F)(F)F
- Z Score: −0.2037
- Z score [5]: −0.204
- Activity [2]: no

Compound: Cl.O[Si](CCCN1CCCCC1)(c1ccc(F)cc1)C1CCCCC1 (centres unmarked)
- Z Score [9]: −1.492
- Z score [5]: −1.492
- Activity [2]: no

Compound: CC[N+](CC)(CC)CC(=O)Nc1c(C)cccc1C.[Br-]
- Z Score [10]: 0.2653
- Z score [5]: 0.265
- Activity [2]: no

Compound: Cl.O=C(CCCN1CCC2(CC1)C(=O)N(CCc1ccc(N=C=S)cc1)CN2c1ccccc1)c1ccc(F)cc1
- Z Score [11]: −0.4152
- Z score [5]: −0.415
- Activity [8]: no

Compound: CNCCc1c[nH]c2ccc(O)cc12.O=C(O)C(=O)O
- Z Score: 0.656
- Z score [5]: 0.656
- Activity [8]: no

Compound: Cc1ccc(S(=O)(=O)N[C@@H](Cc2ccccc2)C(=O)CCl)cc1
- Z Score: 0.3367
- Z score [3]: 0.337
- Activity [4]: no

Compound: COC(=O)[C@@H](N)CCCN=C(N)N[N+](=O)[O-].Cl
- Z Score [9]: −1.411
- Z score [5]: −1.411
- Activity [8]: no

Compound: CCCN(CCC)CCc1c[nH]c2ccc(C(N)=O)cc12.O=C(O)/C=C\C(=O)O
- Z Score: −1.73
- Z score [1]: −1.730
- Activity [2]: no

Compound: CC(COc1ccc(/C=C/c2ccccc2)cc1)[N+](C)(C)C.[I-] (centres unmarked)
- Z Score: −11.13

Compound: CC(COc1ccc(/C=C/c2ccccc2)cc1)[N+](C)(C)C (centres unmarked)
- Z score [5]: −11.127
- Activity [7]: yes

Compound: CN(C)C(N)=NCCC[C@H](N)C(=O)O.Cl
- Z Score: −1.373

Compound: Cc1ccc(S(=O)(=O)N[C@@H](CCCCN)C(=O)CCl)cc1.Cl
- Activity: no
- Z Score: 0.004812
- Z score [5]: 0.005

Compound: CC(Cc1ccc(O)c(O)c1)C(C)Cc1ccc(O)c(O)c1 (centres unmarked)
- Z Score (LOPAC library screen at 3 μM, MTT, secondary neurosphere cultures, screened in singlets): 2.63
- Z score [5]: 2.630
- Activity [8]: no

Compound: CCCN1CCc2cc(O)cc3c2[C@H]1Cc1ccc(O)c(O)c1-3
- Z score [5]: −2.744
- Activity [7]: yes

Compound: CN[C@H](CC(C)C)C(=O)N[C@H]1C(=O)N[C@@H](CC(N)=O)C(=O)N[C@H]2C(=O)N[C@H]3C(=O)N[C@H](C(=O)N[C@H](C(=O)O)c4cc(O)cc(O)c4-c4cc3ccc4O)[C@H](O)c3ccc(c(Cl)c3)Oc3cc2cc(c3O[C@@H]2O[C@H](CO)[C@@H](O)[C@H](O)[C@H]2O[C@H]2C[C@](C)(N)[C@H](O)[C@H](C)O2)Oc2ccc(cc2Cl)[C@H]1O.Cl
- Z Score [10]: −0.06352
- Z score [3]: −0.064
- Activity [4]: no

Compound: N[C@H](C(=O)O)[C@H]1C[C@@H]1C(=O)O
- Z Score: 1.233
- Z score [1]: 1.233
- Activity [2]: no

Compound: C[C@H](O)[C@H](O)[C@H]1CNc2nc(N)[nH]c(=O)c2N1.Cl
- Z Score [10]: 0.9757
- Z score [3]: 0.976
- Activity [4]: no

Compound: CC(N)c1cccc(Cl)c1Cl.Cl (centres unmarked)
- Z Score: −2.251

Compound: O=C(O)[C@H]1CCCN[C@H]1C(=O)O
- Z Score: 0.1553

Compound: CCCCCCCCCC(=O)NC(CN1CCOCC1)[C@H](O)c1ccccc1.Cl (some centres unmarked)
- Z Score [11]: −1.109

Compound: CC[C@@H]1Cc2cc(O)ccc2C2=C1c1ccc(O)cc1C[C@H]2CC
- Z Score: −1.053
- Z score [5]: −1.053
- Activity [7]: no

Compound: Nc1ncnc2c1ncn2[C@@H]1O[C@H](COP(=O)(O)CP(=O)(O)OP(=O)([O-])[O-])[C@H](O)C1O.[Li+].[Li+] (some centres unmarked)
- Z Score [9]: −1.29
- Z score [5]: −1.290
- Activity [8]: no

Compound: CCCCCCC(C(C)O)n1cnc2c(N)ncnc21.Cl (centres unmarked)
- Z Score [11]: −0.7656
- Z score [5]: −0.766
- Activity [2]: no

Compound: 5-Bromo-2$$-deoxyuridine
- Z Score: 2.58

Compound: CCOC(=O)[C@]12CC1/C(=N\O)c1ccccc1O2 (mixture of isomers) [CPCCOEt]
- Z Score [11]: −0.8068
- Z score [1]: −0.807

Compound: Cl.NCCC[C@](N)(C(=O)O)C(F)F (racemic)
- Z Score [11]: −0.4244
- Z score [1]: −0.424
- Activity [2]: no

Compound: CC(N)(Cc1ccc(O)c(O)c1)C(=O)O (racemic)
- Z Score: −1.894

Compound: CCCCCCCCCC(=O)NC(CN1CCOCC1)[C@H](O)c1ccccc1.Cl (mixture of isomers)
- Activity: no
- Z score [5]: −1.109

Compound: NC(Cc1cc(O)c(O)cc1O)C(=O)O (racemic) [6-Hydroxy-DL-DOPA]
- Z Score: 1.204
- Z score [5]: 1.204
- Activity [2]: no

Compound: CC(N)c1cccc(Cl)c1Cl.Cl (racemic) [(±)-2,3-Dichloro-alpha-methylbenzylamine hydrochloride]
- Z score [1]: −2.251
- Activity [2]: no

Compound: NC(CP(=O)(O)O)C(=O)O (racemic) [(±)-2-Amino-3-phosphonopropionic acid]
- Z score [3]: 1.250
- Activity [4]: no

Compound: NC(CCP(=O)(O)O)C(=O)O (racemic) [(±)-2-Amino-4-phosphonobutyric acid]
- Z score [3]: 1.893
- Activity [4]: no

Compound: NC(CCCP(=O)(O)O)C(=O)O (racemic) [(±)-2-Amino-5-phosphonopentanoic acid]
- Z score (168 h, 3 µM): −1.045
- Activity [4]: no

Compound: NC(CCCCCP(=O)(O)O)C(=O)O (racemic) [(±)-2-Amino-7-phospheneheptanoic acid]
- Z score [3]: −1.020
- Activity [4]: no

Compound: CC(N)(Cc1ccc(O)c(O)c1)C(=O)O (racemic) [(±)-3-(3,4-dihydroxyphenyl)-2-methyl-DL-alanine]
- Z score (168 h, 3 µM): −1.894
- Activity [8]: no

Compound: Br.Oc1cc2c(c(Cl)c1O)CCNCC2c1ccccc1 (racemic) [(±)-6-Chloro-PB hydrobromide]
- Z score [5]: −2.267
- Activity [6]: no

Compound: Br.CCCN(CCC)C1CCc2ccc(O)cc2C1 (racemic) [(±)-7-Hydroxy-DPAT hydrobromide]
- Z score [5]: −11.102
- Activity [7]: yes

Compound: Br.CCCN(CCC)C1CCc2cccc(O)c2C1 (racemic) [(±)-8-Hydroxy-DPAT hydrobromide]
- Z score [5]: 0.656
- Activity [7]: no

Compound: Br.Cc1o[nH]c(=O)c1CC(N)C(=O)O (racemic) [(±)-AMPA hydrobromide]
- Z score [5]: −0.427
- Activity [2]: no

Compound: CC1CCN=C(N)S1.Cl (racemic) [(±)-AMT hydrochloride]
- Z score [5]: −2.366
- Activity [8]: yes

Compound: NCC(CC(=O)O)c1ccc(Cl)cc1 (racemic) [(±)-Baclofen]
- Z score [1]: −1.069
- Activity [2]: no

Compound: COC(=O)C1=C(C)NC(C)=C([N+](=O)[O-])C1c1ccccc1C(F)(F)F (racemic) [(±)-Bay K 8644]
- Z score [1]: 0.853
- Activity [2]: no

Compound: CN(C)CCC(c1ccc(Br)cc1)c1ccccn1.O=C(O)/C=C\C(=O)O (racemic) [(±)-Brompheniramine maleate]
- Z score [5]: −3.530
- Activity [7]: yes

Compound: CC(C)(C)NCC(O)COc1cccc2[nH]c(=O)[nH]c12.Cl (racemic) [(±)-CGP-12177A hydrochloride]
- Z score [1]: −1.611
- Activity [2]: no

Compound: O=C(O)C1CN(CCCP(=O)(O)O)CCN1 (racemic) [(±)-CPP]
- Z score [1]: 0.321
- Activity [2]: no

Compound: Br.Br.C=CCN1CCc2c(cc(O)c(O)c2Cl)C(c2ccccc2)C1 (racemic) [(±)-Chloro-APB dihydrobromide]
- Z score [1]: −0.111
- Activity [2]: no

Compound: CN(C)CCC(c1ccc(Cl)cc1)c1ccccn1.O=C(O)/C=C\C(=O)O (racemic) [(±)-Chlorpheniramine maleate]
- Activity: no
- Z score: −2.116

Compound: COc1cc(CC(C)N)c(OC)cc1I.Cl (racemic) [(±)-DOI hydrochloride]
- Z score [1]: −1.345
- Activity [2]: no

Compound: CNCC(O)c1ccc(O)c(O)c1.Cl (racemic) [(±)-Epinephrine hydrochloride]
- Z score [5]: −0.328
- Activity [2]: no

Compound: NC1CCN(O)C1=O (racemic) [(±)-HA-966]
- Activity: no
- Z score [3]: 1.157
